Values quoted from earlier work as cited in US20240197774A1, “Synthesis of Antimicrobial PVP-coated Bismuth Nanoparticles” (Board of Regents, The University of Texas System, priority 2021, published 2024).

Test system: humans
Conditions: intake for years, considered non-toxic

In the case of `[Bi]` [Bismuth], the Intake is given as 5 to 20 g/day/kg.
